The values below come from patent publication US10865191B2, “Heterocyclic compounds useful as modulators of TNF alpha” (BRISTOL-MYERS SQUIBB COMPANY, priority 2015, dated 2020).

Each structure is given as a SMILES string. Where two headings read alike, the source gives them in different places.

In this assay the target is TNFα (Homo sapiens, UniProt P01375). The assay is described as follows: TNF induced HEK-Blue assay (NF-kB-driven secreted alkaline phosphatase reporter). The format is cell-based. The note with it: TNFα 0.5 ng/mL, HEK-Blue-CD40L cells, 18 h. In outline:
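HEK-Blue-CD40L cells (NF-kB-driven SEAP reporter), 20,000/well, added after 30 min pre-incubation of compound (0.004–25 μM final) with TNFα 0.5 ng/mL final at 37 °C; 18 h incubation. SEAP read with QUANTI-Blue at 620 nm; IC50 from 4-parameter logistic fit, normalized to unstimulated and stimulated DMSO controls.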

Setting [1] is: read-out: TNF induced HEK-Blue assay IC50 value.

TNFα, sequence (P01375 77-233 limits assumed): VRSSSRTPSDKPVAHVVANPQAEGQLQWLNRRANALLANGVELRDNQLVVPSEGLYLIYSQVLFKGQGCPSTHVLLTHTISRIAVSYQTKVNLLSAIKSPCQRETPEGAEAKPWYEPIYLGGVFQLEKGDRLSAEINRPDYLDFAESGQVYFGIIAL

As to `CC(Nc1c(Cl)cnc2ccc(-c3cnc(C(C)(C)O)nc3)cc12)[C@@H]1CCCN(C(N)=O)C1` (single isomer, unassigned) [Example 104], under setting [1], the 50% inhibitory concentration (IC50) was 1000 to 10000 nM. Take `C[C@@H](Nc1c(Cl)cnc2ccc(F)cc12)c1cc(-c2cncnc2)ccc1F` [Example 544, (R)-3-chloro-6-fluoro-N-(1-(2-fluoro-5-(pyrimidin-5-yl)phenyl)ethyl)quinolin-4-amine]: the IC50 under setting [1] was under 1000 nM.

Turning to `C[C@@H](Nc1c(Cl)cnc2ccc(-c3cnc(C(C)(C)O)nc3)cc12)c1cc(-c2cnn(C)c2)ccc1F` [Example 339, (R)-2-(5-(3-chloro-4-((1-(2-fluoro-5-(1-methyl-1H-pyrazol-4-yl)phenyl)ethyl)amino)quinolin-6-yl)pyrimidin-2-yl)propan-2-ol], under setting [1], the IC50 was under 1000 nM.

As to `C[C@@H](Nc1c(Cl)c(C(=O)Nc2cccnc2)nc2ccc(-c3cnc(C(C)(C)O)nc3)cc12)c1cc(C(N)=O)ccc1F` [Example 395, (R)-4-((1-(5-carbamoyl-2-fluorophenyl)ethyl)amino)-3-chloro-6-(2-(2-hydroxypropan-2-yl)pyrimidin-5-yl)-N-(pyridin-3-yl)quinoline-2-carboxamide], the IC50 under setting [1] fell in the range of 1000 to 10000 nM. For the compound `Cc1ccc(C)c(Nc2c(Cl)c(C(=O)O)nc3ccc(-c4ccc(C#N)nc4)cc23)c1` [Example 31, 3-chloro-6-(6-cyanopyridin-3-yl)-4-((2,5-dimethylphenyl)amino)quinoline-2-carboxylic acid], under setting [1], the IC50 was in the range of 1000 to 10000 nM. Still for that read-out and setting: for `CN(C)CC(Nc1c(Cl)cnc2ccc(-c3cnc(C(C)(C)O)nc3)cc12)c1ccccc1F` (racemic) [Example 12, 2-(5-(3-chloro-4-((2-(dimethylamino)-1-(2-fluorophenyl)ethyl)amino)quinolin-6-yl)pyrimidin-2-yl) propan-2-ol] the value was 1000 to 10000 nM; for `Cc1nc2cc(F)c(-c3cnc(C(C)(C)O)nc3)nc2c(N[C@@H](c2cc(C#N)ccc2F)C(F)F)c1Cl` [Example 499, (S)-3-(1-((3-chloro-7-fluoro-6-(2-(2-hydroxypropan-2-yl)pyrimidin-5-yl)-2-methyl-1,5-naphthyridin-4-yl)amino)-2,2-difluoroethyl)-4-fluorobenzonitrile], under 1000 nM; for `C[C@@H](Nc1c(Cl)cnc2ccccc12)c1cc(-c2cccnc2)ccc1F` [Example 461, (R)-3-chloro-N-(1-(2-fluoro-5-(pyridin-3-yl)phenyl)ethyl)quinolin-4-amine], under 1000 nM. Take `Cc1ccc(C)c(Nc2c(Cl)c(C(=O)N(C)C)nc3ccc(-c4ccc(C#N)nc4)cc23)c1` [Example 34, 3-chloro-6-(6-cyanopyridin-3-yl)-4-((2,5-dimethylphenyl)amino)-N,N-dimethylquinoline-2-carboxamide]: under setting [1], the IC50 was in the range of 1000 to 10000 nM. Still for that read-out and setting: the same measure for `C[C@@H](Nc1c(Cl)cnc2ccc(-c3cnc(C(C)(C)O)nc3)cc12)c1cc(-n2cccn2)ccc1F` [Example 366, (R)-2-(5-(3-chloro-4-((1-(2-fluoro-5-(1H-pyrazol-1-yl)phenyl)ethyl)amino)quinolin-6-yl)pyrimidin-2-yl)propan-2-ol]: under 1000 nM; for `C[C@@H](Nc1c(Cl)cnc2ccccc12)c1cc(-c2cc3ccccc3[nH]2)ccc1F` [Example 528, (R)-3-chloro-N-(1-(2-fluoro-5-(1H-indol-2-yl)phenyl)ethyl)quinolin-4-amine]: 1000 to 10000 nM. The same measure, in the same setting: the same measure for `C[C@@H](Nc1c(Cl)cnc2ccc(-c3ccc(C(O)(CF)CF)cc3)cc12)c1ccccc1F` [Example 117, (R)-2-(4-(3-chloro-4-((1-(2-fluorophenyl)ethyl)amino)quinolin-6-yl)phenyl)-1,3-difluoropropan-2-ol]: under 1000 nM; for `Cc1nc2ccc(-c3cnc(C(C)(C)O)nc3)cc2c(N[C@H](C)c2cc(-c3nnn[nH]3)ccc2F)c1Cl` [Example 412, (R)-2-(5-(3-chloro-4-((1-(2-fluoro-5-(1H-tetrazol-5-yl)phenyl)ethyl)amino)-2-methylquinolin-6-yl)pyrimidin-2-yl)propan-2-ol]: 10000 to 25000 nM; for `C[C@@H](Nc1c(Cl)cnc2ccc(-c3ccc(C(C)(C)O)cc3)cc12)c1cnccn1` [Example 490, (R)-2-(4-(3-chloro-4-((1-(pyrazin-2-yl)ethyl)amino)quinolin-6-yl)phenyl)propan-2-ol]: under 1000 nM. As to `CC(C)(O)c1ncc(-c2nc3c(N[C@H](c4cc(C#N)ccc4F)C(F)F)c(Cl)cnc3cc2F)cn1` [Example 489, (R)-3-(1-((3-chloro-7-fluoro-6-(2-(2-hydroxypropan-2-yl)pyrimidin-5-yl)-1,5-naphthyridin-4-yl)amino)-2,2-difluoroethyl)-4-fluorobenzonitrile], the IC50 under setting [1] was under 1000 nM. For the compound `CC(=O)NCc1ccc(-c2ccc3ncc(Cl)c(N[C@H](C)c4ccccc4F)c3c2)cc1` [Example 110, (R)—N-(4-(3-chloro-4-((1-(2-fluorophenyl)ethyl)amino)quinolin-6-yl)benzyl)acetamide], under setting [1], the IC50 was under 1000 nM. On the same count and under the same terms, for `CC(Nc1c(Cl)cnc2ccc(-c3ccc(C(C)(C)O)cc3)cc12)c1ccncc1` (racemic) [Example 176, 2-(4-(3-chloro-4-((1-(pyridin-4-yl)ethyl)amino)quinolin-6-yl)phenyl)propan-2-ol] the value was under 1000 nM; for `C=Cc1cccc([C@@H](C)Nc2c(Cl)c(C)nc3cc(F)c(-c4cnc(C(C)(C)O)nc4)nc23)c1` [Example 571, (R)-2-(5-(7-chloro-3-fluoro-6-methyl-8-((1-(3-vinylphenyl)ethyl)amino)-1,5-naphthyridin-2-yl)pyrimidin-2-yl)propan-2-ol], under 1000 nM. With `CCN1CCC[C@H]([C@H](C)Nc2c(Cl)cnc3ccc(-c4cnc(C(C)(C)O)nc4)cc23)C1` [Example 105, 2-(5-(3-chloro-4-(((S)-1-((S)-1-ethylpiperidin-3-yl)ethyl)amino)quinolin-6-yl)pyrimidin-2-yl)propan-2-ol], the IC50 under setting [1] was under 1000 nM. On to `C[C@@H](Nc1c(Cl)cnc2ccccc12)c1cc(-c2cncc(N)c2)ccc1F` [Example 511, (R)—N-(1-(5-(5-aminopyridin-3-yl)-2-fluorophenyl)ethyl)-3-chloroquinolin-4-amine], for which the IC50 under setting [1] is under 1000 nM.

With `C[C@@H](Nc1c(Cl)cnc2ccc(-c3cnc(C(C)(C)O)nc3)cc12)c1cc(N2CCNC2=O)ccc1F` [Example 370, (R)-1-(3-(1-((3-chloro-6-(2-(2-hydroxypropan-2-yl)pyrimidin-5-yl)quinolin-4-yl)amino)ethyl)-4-fluorophenyl)imidazolidin-2-one], under setting [1], the IC50 is under 1000 nM. Consider `CC(C)(O)c1ncc(-c2ccc3ncc(Cl)c(NC(CC(F)F)c4ccccc4F)c3c2)cn1` (racemic) [Example 168, 2-(5-(3-chloro-4-((3,3-difluoro-1-(2-fluorophenyl)propyl)amino)quinolin-6-yl)pyrimidin-2-yl)propan-2-ol], for which the IC50 under setting [1] is under 1000 nM. Still for that read-out and setting: the same measure for `CC(Nc1c(Cl)cnc2cc(F)c(-c3cnc(C(C)(C)O)nc3)nc12)c1ccccc1F` (racemic) [Example 209, 2-(5-(7-chloro-3-fluoro-8-((1-(2-fluorophenyl)ethyl)amino)-1,5-naphthyridin-2-yl)pyrimidin-2-yl)propan-2-ol]: under 1000 nM. On to `C[C@@H](Nc1c(Cl)cnc2ccc(-c3cnc(N4CCN(CC(=O)O)CC4)nc3)cc12)c1ccccc1F` [Example 285, (R)-2-(4-(5-(3-chloro-4-((1-(2-fluorophenyl)ethyl)amino)quinolin-6-yl)pyrimidin-2-yl)piperazin-1-yl)acetic acid], for which the IC50 (TNF induced HEK-Blue assay IC50 value) was under 1000 nM.

`C[C@@H](Nc1c(Cl)cnc2ccc(-c3cnc(C(C)(C)O)nc3)cc12)c1cc(C(O)CO)ccc1F` (mixture of isomers) [Example 398, 1-(3-((R)-1-((3-chloro-6-(2-(2-hydroxypropan-2-yl)pyrimidin-5-yl)quinolin-4-yl)amino)ethyl)-4-fluorophenyl)ethane-1,2-diol]: under setting [1], the IC50 was under 1000 nM.

On to `C[C@@H](Nc1c(Cl)cnc2ccc(-c3cnc(C(C)(C)O)nc3)cc12)C1CCCCC1` [Example 58, (R)-2-(5-(3-chloro-4-((1-cyclohexylethyl)amino)quinolin-6-yl)pyrimidin-2-yl)propan-2-ol], for which, under setting [1], the IC50 is under 1000 nM. As to `CC(C)(O)c1ncc(-c2nc3c(N[C@@H](c4ccccc4F)C(F)F)c(Cl)cnc3cc2F)cn1` [Example 207, (S)-2-(5-(7-chloro-8-((2,2-difluoro-1-(2-fluorophenyl)ethyl)amino)-3-fluoro-1,5-naphthyridin-2-yl)pyrimidin-2-yl)propan-2-ol], the IC50 under setting [1] was under 1000 nM. Take `C=CC[C@@H](Nc1c(Cl)cnc2ccc(-c3cnc(C(C)(C)O)nc3)cc12)c1cc(Cl)ccn1` [Example 63, (R)-2-(5-(3-chloro-4-((1-(4-chloropyridin-2-yl)but-3-en-1-yl)amino)quinolin-6-yl)pyrimidin-2-yl)propan-2-ol]: the IC50 under setting [1] was under 1000 nM. Consider `CC(Nc1c(Cl)cnc2cc(F)c(-c3ccc(C(O)CN4CCOCC4)cc3)cc12)c1ccccc1F` (stereo not shown) [Example 288, 1-(4-(3-chloro-7-fluoro-4-((1-(2-fluorophenyl)ethyl)amino)quinolin-6-yl)phenyl)-2-morpholinoethan-1-ol], for which the IC50 under setting [1] was 1000 to 10000 nM. In the case of `CC(Nc1c(Cl)cnc2cc(F)c(-c3cnc(C(O)CN4CCC(C(=O)O)CC4)nc3)cc12)c1ccccc1F` (single isomer, unassigned) [Example 610, 1-(2-(5-(3-chloro-7-fluoro-4-((1-(2-fluorophenyl)ethyl)amino)quinolin-6-yl)pyrimidin-2-yl)-2-hydroxyethyl) piperidine-4-carboxylic acid], the IC50 under setting [1] is under 1000 nM. Turning to `CC(Nc1c(Cl)cnc2cc(F)c(-c3cnc(C(C)(C)O)nc3)nc12)c1cccc(N)c1` (racemic) [Example 239, 2-(5-(8-((1-(3-aminophenyl)ethyl)amino)-7-chloro-3-fluoro-1,5-naphthyridin-2-yl)pyrimidin-2-yl)propan-2-ol], under setting [1], the half-inhibitory concentration (IC50) was under 1000 nM.
